{
  "source": "patent US20260240159A1",
  "about": "“HERBICIDAL COMPOSITIONS” (SYNGENTA CROP PROTECTION AG, priority 2023, published 2026)",
  "experiment_in_all_cases": "Post-emergence glasshouse herbicidal efficacy, percentage damage to plant",
  "type_in_all_cases": "in vivo",
  "settings_in_all_cases": "after 14 days",
  "key": {"[1]": {"tested_on": "Echinochloa crus-galli (ECHCG)", "source_text": "(§1) When active ingredients are combined, the activity to be expected (E) for any given active ingredient combination obeys the so-called Colby Formula and can be calculated as follows (Colby, S. R., Calculating synergistic and antagonistic responses of herbicide combination, Weeds, Vol. 15, pages 20-22; 1967): • ppm=milligrams of active ingredient (a.i.) per liter • X=% action by first active ingredient using p ppm of the active ingredient • Y=% action by second active ingredient sing q ppm of the active ingredient.\n(§2) According to Colby, the expected action of active ingredients A+B using p+q ppm of active ingredient is represented by the following formula: […]\n(§3) If the action actually observed (O) is greater than the expected action E then the action of the combination is super-additive, i.e. there is a synergistic effect. In mathematical terms, synergism corresponds to a positive value for the difference of (O-E). In the case of purely complementary addition of activities (expected activity), said difference (O-E) is zero. A negative value of said difference (O-E) signals a loss of activity compared to the expected activity.\n(§4) Biological Efficacy Tests Seeds of a variety of test species are sown in standard soil in pots (Ipomoea hederacea (IPHOE), Alopecurus myosuroides (ALOMY), Lolium perenne (LOLPE), Echinochloa crus-galli (ECHCG), and Setaria faberi (SETFA)), and cultivated under controlled conditions in a glasshouse (at 24/16° C., day/night; 14 hours light; 65% humidity), the plants are sprayed with an aqueous spray solution derived from the dissolution of the test compound or composition in acetone and IF50 (11.12% Emulsogen EL360 TM+44.44% N-methylpyrrolidone+44.44% Dowanol DPM glycol ether) which was then diluted to the required concentration using 0.2% Genapol X080 (CAS No. 9043-30-5) in water as the diluent. Test compounds or compositions are applied at the rates stated. The test plants are then grown in a glasshouse under controlled conditions in a glasshouse (at 24/16° C., day/night; 14 hours light; 65% humidity) and watered twice daily. After 14 days, the test is evaluated for the percentage damage caused to the plant (100=total damage to plant; 0=no damage to plant), and the result are shown below in tables B1 to B5."}, "Setaria faberi (SETFA)": {"tested_on": "Setaria faberi (SETFA)", "source_text": "as §1, §2, §3, §4"}, "[2]": {"tested_on": "Ipomoea hederacea (IPOHE)", "source_text": "as §1, §2, §3, §4"}, "[3]": {"tested_on": "Alopecurus myosuroides (ALOMY)", "source_text": "as §1, §2, §3, §4"}, "Lolium perenne (LOLPE)": {"tested_on": "Lolium perenne (LOLPE)", "source_text": "as §1, §2, §3, §4"}},
  "data": [
    {"smiles": "CCOC(=O)C1(C)CC(c2cc(-n3c(=O)cc(C(F)(F)F)n(C)c3=O)c(F)cc2Cl)=NO1", "note": "(centres unmarked) [(Ia)]", "values": [
      {"measurement": "inhibition at 1.875 g/ha", "setting": "[1]; Echinochloa crus-galli, 336 h, (Ia) 1.875 g/Ha alone, read-out: Observed Activity (%)", "value": 15, "unit": "%"},
      {"measurement": "inhibition at 3.75 g/ha", "setting": "[1]; Echinochloa crus-galli, 336 h, (Ia) 3.75 g/Ha alone, read-out: Observed Activity (%)", "value": 37.5, "unit": "%"},
      {"measurement": "inhibition at 7.5 g/ha", "setting": "[1]; Echinochloa crus-galli, 336 h, (Ia) 7.5 g/Ha alone, read-out: Observed Activity (%)", "value": 99, "unit": "%"},
      {"measurement": "inhibition at 1.875 g/ha", "setting": "Setaria faberi (SETFA); Setaria faberi, 336 h, (Ia) 1.875 g/Ha alone, read-out: Observed Activity (%)", "value": 55, "unit": "%"},
      {"measurement": "inhibition at 3.75 g/ha", "setting": "Setaria faberi (SETFA); Setaria faberi, 336 h, (Ia) 3.75 g/Ha alone, read-out: Observed Activity (%)", "value": 67.5, "unit": "%"},
      {"measurement": "inhibition at 0.9375 g/ha", "setting": "[2]; Ipomoea hederacea, 336 h, (Ia) 0.9375 g/Ha alone, read-out: Observed Activity (%)", "value": 84.8, "unit": "%"},
      {"measurement": "inhibition at 1.875 g/ha", "setting": "[3]; Alopecurus myosuroides, 336 h, (Ia) 1.875 g/Ha alone, read-out: Observed Activity (%)", "value": 10, "unit": "%"},
      {"measurement": "inhibition at 3.75 g/ha", "setting": "[3]; Alopecurus myosuroides, 336 h, (Ia) 3.75 g/Ha alone, read-out: Observed Activity (%)", "value": 27.5, "unit": "%"},
      {"measurement": "inhibition at 7.5 g/ha", "setting": "[3]; Alopecurus myosuroides, 336 h, (Ia) 7.5 g/Ha alone, read-out: Observed Activity (%)", "value": 42.5, "unit": "%"},
      {"measurement": "inhibition at 15 g/ha", "setting": "[3]; Alopecurus myosuroides, 336 h, (Ia) 15 g/Ha alone, read-out: Observed Activity (%)", "value": 60, "unit": "%"},
      {"measurement": "inhibition at 1.875 g/ha", "setting": "Lolium perenne (LOLPE); Lolium perenne, 336 h, (Ia) 1.875 g/Ha alone, read-out: Observed Activity (%)", "value": 0, "unit": "%"},
      {"measurement": "inhibition at 3.75 g/ha", "setting": "Lolium perenne (LOLPE); Lolium perenne, 336 h, (Ia) 3.75 g/Ha alone, read-out: Observed Activity (%)", "value": 12.5, "unit": "%"},
      {"measurement": "inhibition at 7.5 g/ha", "setting": "Lolium perenne (LOLPE); Lolium perenne, 336 h, (Ia) 7.5 g/Ha alone, read-out: Observed Activity (%)", "value": 42.5, "unit": "%"},
      {"measurement": "inhibition at 15 g/ha", "setting": "Lolium perenne (LOLPE); Lolium perenne, 336 h, (Ia) 15 g/Ha alone, read-out: Observed Activity (%)", "value": 50, "unit": "%"}
    ]},
    {"smiles": "CCc1cccc(C)c1N(C(=O)CCl)[C@@H](C)COC", "note": "[S-metolachlor]", "values": [
      {"measurement": "Observed Activity (%)", "setting": "[1]; S-metolachlor 18.75 g/Ha alone", "value": 75.0, "unit": "%"},
      {"measurement": "Observed Activity (%)", "setting": "[1]; S-metolachlor 37.5 g/Ha alone", "value": 85.0, "unit": "%"},
      {"measurement": "Observed Activity (%)", "setting": "[1]; S-metolachlor 75 g/Ha alone", "value": 85.0, "unit": "%"},
      {"measurement": "Observed Activity (%)", "setting": "Setaria faberi (SETFA); S-metolachlor 37.5 g/Ha alone", "value": 72.5, "unit": "%"},
      {"measurement": "Observed Activity (%)", "setting": "Setaria faberi (SETFA); S-metolachlor 75 g/Ha alone", "value": 82.5, "unit": "%"},
      {"measurement": "Observed Activity (%)", "setting": "Setaria faberi (SETFA); S-metolachlor 150 g/Ha alone", "value": 85.0, "unit": "%"},
      {"measurement": "Observed Activity (%)", "setting": "[2]; S-metolachlor 62.5 g/Ha alone", "value": 5.0, "unit": "%"},
      {"measurement": "Observed Activity (%)", "setting": "[2]; S-metolachlor 125 g/Ha alone", "value": 7.5, "unit": "%"},
      {"measurement": "Observed Activity (%)", "setting": "[3]; S-metolachlor 18.75 g/Ha alone", "value": 0.0, "unit": "%"},
      {"measurement": "Observed Activity (%)", "setting": "[3]; S-metolachlor 37.5 g/Ha alone", "value": 10.0, "unit": "%"},
      {"measurement": "Observed Activity (%)", "setting": "[3]; S-metolachlor 75 g/Ha alone", "value": 0.0, "unit": "%"},
      {"measurement": "Observed Activity (%)", "setting": "[3]; S-metolachlor 150 g/Ha alone", "value": 27.5, "unit": "%"},
      {"measurement": "Observed Activity (%)", "setting": "[3]; S-metolachlor 300 g/Ha alone", "value": 45.0, "unit": "%"},
      {"measurement": "Observed Activity (%)", "setting": "Lolium perenne (LOLPE); S-metolachlor 18.75 g/Ha alone", "value": 45.0, "unit": "%"},
      {"measurement": "Observed Activity (%)", "setting": "Lolium perenne (LOLPE); S-metolachlor 37.5 g/Ha alone", "value": 60.0, "unit": "%"},
      {"measurement": "Observed Activity (%)", "setting": "Lolium perenne (LOLPE); S-metolachlor 75 g/Ha alone", "value": 70.0, "unit": "%"},
      {"measurement": "Observed Activity (%)", "setting": "Lolium perenne (LOLPE); S-metolachlor 150 g/Ha alone", "value": 67.5, "unit": "%"},
      {"measurement": "Observed Activity (%)", "setting": "Lolium perenne (LOLPE); S-metolachlor 300 g/Ha alone", "value": 80.0, "unit": "%"}
    ]}
  ]
}
